Laboratory results: patent EP2689855B1, “Modified micronization device and use thereof” (Oekomineral AG, priority 2012, dated 2014)
≈ marks a conversion by molar mass, not a printed value. Blank lines part the entries; values can stand above or below the molecule they belong to.

Key:
Format in all cases: physicochemical
[1] = Amorphous content / crystalline disorder by isothermal calorimetry (IC TAM 3); conditions: ursolic acid
Experimental: (§1) 1 kg of each sample of ursolic acid (98% purity, Sigma Aldrich) of an average particle size of 30 µm was micronized five times in devices having different hitting elements. The discs were cooled through a feeder opening with liquid nitrogen spraying to avoid overheating of the heat-sensitive substance.
The micronized samples were analyzed for particle size (Malvern MasterSizer 2000), while the extent of crystalline disorder of particles was quantified with isothermal calorimetry (IC TAM 3, TA instruments, USA). Data was recorded with proprietary software Digitam 4.2.

[2] = Particle size analysis (Malvern MasterSizer 2000) of micronized samples; conditions: ursolic acid
Excerpt: The influence of the shape of the blades on the efficiency of the micronization has been studied by the use of the micronization device shown in Figures 1 and 2 from the prior art of the following technical characteristics: • (i) diameter of discs (Ø) of micronizer was 370 mm; • (ii) number of layers of hitting elements (blades) on the discs was 3 on primary and 2 on secondary disc; • (iii) number of blades on each of wreaths of discs was 20/16 (outer/inner wreath) from one side; and 18/16 (outer/inner wreath) from the other side of the micronizer; • (iv) the rotation velocity was 10000 rpm;
1 kg of each sample of same zeolite clinoptilolite was micronized by using the device according to the prior art and three different hitting elements as depicted in figures 5, 6 and 8. The disintegrators are characterized by the following data: • 1. Plates formed according to US4406409 A (Figure 5; Micronization-1); • 2. Slightly curved and indented plates according to HR990263 A2 (Figure 6; Micronizationt-2); and • 3. The hitting elements according to the present invention (Figure 8; Micronization-3) […]
as §1
The micronized samples were analyzed for particle size (Malvern MasterSizer 2000), while the extent of crystalline disorder of particles was quantified with isothermal calorimetry (IC TAM 3, TA instruments, USA). Data was recorded with proprietary software Digitam 4.2. […]

[3] = Water solubility measurement of micronized Pterostilbene; conditions: thermodynamic from solid
Experimental: 1.00 kg of Pterostilbene (98% purity, Organic Herb, China) 50 µm of crystalline particles as model substance were subjected to micronization from present invention with additional maintaining of low temperature (20 °C) of substance via slow liquid nitrogen stream flow addition through neck feeder. In this preparation discs with blades in the shape of cubes and extruded triangles were used (Figure 7) , according to the present invention.
Such prepared samples of micronized Pterostilbene were subjected to particles size analyses and water solubility measurement.

- Amorphous Content (%, w/w) ([1]; MICRONIZATION-1, five repeated micronization procedures): 3.68 %, w/w
- Amorphous Content (%, w/w) ([1]; MICRONIZATION-2, five repeated micronization procedures): 6.12 %, w/w
- Amorphous Content (%, w/w) ([1]; MICRONIZATION-3, five repeated micronization procedures): 19.23 %, w/w
- Volume (%) under ([2]; Particles size 0.105 µm, MICRONIZATION-1, five repeated micronization procedures): 0.00%
- Volume (%) under ([2]; Particles size 0.105 µm, MICRONIZATION-2, five repeated micronization procedures): 0.00%
- Volume (%) under ([2]; Particles size 0.105 µm, MICRONIZATION-3, five repeated micronization procedures): 0.00%
- Volume (%) under ([2]; Particles size 0.120 µm, MICRONIZATION-1, five repeated micronization procedures): 0.00%
- Volume (%) under ([2]; Particles size 0.120 µm, MICRONIZATION-2, five repeated micronization procedures): 0.00%
- Volume (%) under ([2]; Particles size 0.120 µm, MICRONIZATION-3, five repeated micronization procedures): 0.00%
- Volume (%) under ([2]; Particles size 0.138 µm, MICRONIZATION-1, five repeated micronization procedures): 0.00%
- Volume (%) under ([2]; Particles size 0.138 µm, MICRONIZATION-2, five repeated micronization procedures): 0.00%
- Volume (%) under ([2]; Particles size 0.138 µm, MICRONIZATION-3, five repeated micronization procedures): 0.00%
- Volume (%) under ([2]; Particles size 0.158 µm, MICRONIZATION-1, five repeated micronization procedures): 0.00%
- Volume (%) under ([2]; Particles size 0.158 µm, MICRONIZATION-2, five repeated micronization procedures): 0.00%
- Volume (%) under ([2]; Particles size 0.158 µm, MICRONIZATION-3, five repeated micronization procedures): 0.28%
- Volume (%) under ([2]; Particles size 0.182 µm, MICRONIZATION-1, five repeated micronization procedures): 0.00%
- Volume (%) under ([2]; Particles size 0.182 µm, MICRONIZATION-2, five repeated micronization procedures): 0.00%
- Volume (%) under ([2]; Particles size 0.182 µm, MICRONIZATION-3, five repeated micronization procedures): 1.38%
- Volume (%) under ([2]; Particles size 0.209 µm, MICRONIZATION-1, five repeated micronization procedures): 0.00%
- Volume (%) under ([2]; Particles size 0.209 µm, MICRONIZATION-2, five repeated micronization procedures): 0.12%
- Volume (%) under ([2]; Particles size 0.209 µm, MICRONIZATION-3, five repeated micronization procedures): 2.73%
- Volume (%) under ([2]; Particles size 0.240 µm, MICRONIZATION-1, five repeated micronization procedures): 0.00%
- Volume (%) under ([2]; Particles size 0.240 µm, MICRONIZATION-2, five repeated micronization procedures): 0.46%
- Volume (%) under ([2]; Particles size 0.240 µm, MICRONIZATION-3, five repeated micronization procedures): 3.69%
- Volume (%) under ([2]; Particles size 0.275 µm, MICRONIZATION-1, five repeated micronization procedures): 0.01%
- Volume (%) under ([2]; Particles size 0.275 µm, MICRONIZATION-2, five repeated micronization procedures): 1.19%
- Volume (%) under ([2]; Particles size 0.275 µm, MICRONIZATION-3, five repeated micronization procedures): 5.39%
- Volume (%) under ([2]; Particles size 0.316 µm, MICRONIZATION-1, five repeated micronization procedures): 0.06%
- Volume (%) under ([2]; Particles size 0.316 µm, MICRONIZATION-2, five repeated micronization procedures): 1.97%
- Volume (%) under ([2]; Particles size 0.316 µm, MICRONIZATION-3, five repeated micronization procedures): 8.42%
- Volume (%) under ([2]; Particles size 0.363 µm, MICRONIZATION-1, five repeated micronization procedures): 0.23%
- Volume (%) under ([2]; Particles size 0.363 µm, MICRONIZATION-2, five repeated micronization procedures): 2.83%
- Volume (%) under ([2]; Particles size 0.363 µm, MICRONIZATION-3, five repeated micronization procedures): 11.76%
- Volume (%) under ([2]; Particles size 0.417 µm, MICRONIZATION-1, five repeated micronization procedures): 0.50%
- Volume (%) under ([2]; Particles size 0.417 µm, MICRONIZATION-2, five repeated micronization procedures): 4.09%
- Volume (%) under ([2]; Particles size 0.417 µm, MICRONIZATION-3, five repeated micronization procedures): 14.01%
- Volume (%) under ([2]; Particles size 0.479 µm, MICRONIZATION-1, five repeated micronization procedures): 0.87%
- Volume (%) under ([2]; Particles size 0.479 µm, MICRONIZATION-2, five repeated micronization procedures): 5.36%
- Volume (%) under ([2]; Particles size 0.479 µm, MICRONIZATION-3, five repeated micronization procedures): 19.32%
- Volume (%) under ([2]; Particles size 0.550 µm, MICRONIZATION-1, five repeated micronization procedures): 1.12%
- Volume (%) under ([2]; Particles size 0.550 µm, MICRONIZATION-2, five repeated micronization procedures): 7.01%
- Volume (%) under ([2]; Particles size 0.550 µm, MICRONIZATION-3, five repeated micronization procedures): 25.19%
- Volume (%) under ([2]; Particles size 0.631 µm, MICRONIZATION-1, five repeated micronization procedures): 2.02%
- Volume (%) under ([2]; Particles size 0.631 µm, MICRONIZATION-2, five repeated micronization procedures): 9.13%
- Volume (%) under ([2]; Particles size 0.631 µm, MICRONIZATION-3, five repeated micronization procedures): 31.12%
- Volume (%) under ([2]; Particles size 0.724 µm, MICRONIZATION-1, five repeated micronization procedures): 3.29%
- Volume (%) under ([2]; Particles size 0.724 µm, MICRONIZATION-2, five repeated micronization procedures): 11.51%
- Volume (%) under ([2]; Particles size 0.724 µm, MICRONIZATION-3, five repeated micronization procedures): 36.14%
- Volume (%) under ([2]; Particles size 0.832 µm, MICRONIZATION-1, five repeated micronization procedures): 4.78%
- Volume (%) under ([2]; Particles size 0.832 µm, MICRONIZATION-2, five repeated micronization procedures): 13.61%
- Volume (%) under ([2]; Particles size 0.832 µm, MICRONIZATION-3, five repeated micronization procedures): 42.72%
- Volume (%) under ([2]; Particles size 0.955 µm, MICRONIZATION-1, five repeated micronization procedures): 6.12%
- Volume (%) under ([2]; Particles size 0.955 µm, MICRONIZATION-2, five repeated micronization procedures): 16.29%
- Volume (%) under ([2]; Particles size 0.955 µm, MICRONIZATION-3, five repeated micronization procedures): 50.02%
- Volume (%) under ([2]; Particles size 1.096 µm, MICRONIZATION-1, five repeated micronization procedures): 8.44%
- Volume (%) under ([2]; Particles size 1.096 µm, MICRONIZATION-2, five repeated micronization procedures): 19.17%
- Volume (%) under ([2]; Particles size 1.096 µm, MICRONIZATION-3, five repeated micronization procedures): 59.80%
SMILES: C[C@H]1[C@H](C)CC[C@]2(C(=O)O)CC[C@]3(C)C(=CC[C@@H]4[C@@]5(C)CC[C@H](O)C(C)(C)[C@@H]5CC[C@]43C)[C@H]12 [ursolic acid]

- solubility ([3]; after seven repeated processes of micronization, blades of present invention (Figure 7)): 128 µg/mL (≈ 499 µM)
- solubility ([3]; before micronization): 23 µg/mL (≈ 89.7 µM)
SMILES: COc1cc(/C=C/c2ccc(O)cc2)cc(OC)c1 [Pterostilbene]
